Measurements taken from ChEMBL document CHEMBL1130941, “Comparison of the intrinsic kinase activity and substrate specificity of c-Abl and Bcr-Abl” (Bioorg Med Chem Lett, 1998).
Peptide text beside a SMILES is read from it.

Tests used:
[1] = biological target: T1, Bcr/Abl fusion protein (Homo sapiens) (UniProt P00519+P11274); experiment: Ratio of peptide phosphorylation by Bcr-Abl and c-Abl protein tyrosine kinases; assay type: protein assay
[2] = biological target: T1, Bcr/Abl fusion protein (Homo sapiens); experiment: Peptide phosphorylation by Bcr-Abl protein tyrosine kinase at 25 degree for 30 min in a cell-free system; assay type: protein assay
[3] = biological target: Tyrosine-protein kinase ABL1 (Homo sapiens) (UniProt P00519); experiment: Peptide phosphorylation by c-Abl protein tyrosine kinase at 25 degree for 30 min in a cell-free system
[4] = biological target: Tyrosine-protein kinase ABL1 (Homo sapiens) (UniProt P00519); experiment: Vmax/Km value for peptide phosphorylation by c-Abl protein tyrosine kinase
[5] = biological target: T1, Bcr/Abl fusion protein (Homo sapiens); experiment: Vmax/Km value for peptide phosphorylation by Bcr-Abl protein tyrosine kinase; assay type: protein assay
[6] = test system: CC[C@H](C)[C@H](NC(=O)[C@H](CCC(=O)O)NC(=O)[C@@H](N)CCC(=O)O)C(=O)N[C@@H](Cc1ccc(O)cc1)C(=O)N[C@@H](CCC(=O)O)C(=O)N[C@@H](CCC(=O)O)C(=O)N1CCC[C@H]1C(=O)N[C@@H](Cc1ccc(O)cc1)C(=O)O; experiment: (§1) Vmax value for peptide phosphorylation by Bcr-Abl protein tyrosine kinase; assay type: protein assay
[7] = test system: CC[C@H](C)[C@H](NC(=O)[C@H](CCC(=O)O)NC(=O)[C@@H](N)CCC(=O)O)C(=O)N[C@@H](Cc1ccc(O)cc1)C(=O)N[C@@H](Cc1ccc(O)cc1)C(=O)N[C@@H](Cc1ccc(O)cc1)C(=O)N[C@H](C(=O)N[C@@H](Cc1c[nH]cn1)C(=O)O)C(C)C; experiment: as §1; assay type: protein assay
[8] = test system: CC[C@H](C)[C@H](NC(=O)[C@H](CCC(=O)O)NC(=O)[C@H](CC(=O)O)NC(=O)[C@H](Cc1ccc(O)cc1)NC(=O)[C@@H](NC(=O)[C@H](CCC(=O)O)NC(=O)[C@@H](N)CCC(=O)O)[C@@H](C)CC)C(=O)N[C@@H](Cc1ccc(O)cc1)C(=O)O; experiment: as §1; assay type: protein assay
[9] = test system: CC[C@H](C)[C@H](NC(=O)[C@H](CCC(=O)O)NC(=O)[C@@H](N)CCC(=O)O)C(=O)N[C@@H](Cc1ccc(O)cc1)C(=O)N[C@@H](CC(=O)O)C(=O)N[C@@H](Cc1ccc(O)cc1)C(=O)N[C@@H](C)C(=O)N[C@@H](Cc1ccc(O)cc1)C(=O)O; experiment: as §1; assay type: protein assay
[10] = test system: CC[C@H](C)[C@H](NC(=O)[C@H](CCC(=O)O)NC(=O)[C@@H](N)CCC(=O)O)C(=O)N[C@@H](Cc1ccc(O)cc1)C(=O)N[C@@H](C)C(=O)N[C@@H](CCC(=O)O)C(=O)N[C@@H](Cc1c[nH]c2ccccc12)C(=O)N[C@@H](Cc1ccccc1)C(=O)O; experiment: as §1; assay type: protein assay
[11] = test system: CC[C@H](C)[C@H](NC(=O)[C@H](CCCN=C(N)N)NC(=O)[C@@H](N)CCC(=O)O)C(=O)N[C@@H](Cc1ccc(O)cc1)C(=O)N[C@@H](C)C(=O)N[C@@H](CCCN=C(N)N)C(=O)N[C@H](C(=O)N[C@@H](CCCCN)C(=O)O)[C@@H](C)O; experiment: as §1; assay type: protein assay
[12] = test system: CC[C@H](C)[C@H](NC(=O)[C@H](CCC(=O)O)NC(=O)[C@@H](N)CCC(=O)O)C(=O)N[C@@H](Cc1ccc(O)cc1)C(=O)N[C@@H](CCC(=O)O)C(=O)N[C@@H](CCC(=O)O)C(=O)N1CCC[C@H]1C(=O)N[C@@H](Cc1ccc(O)cc1)C(=O)O; experiment: (§2) Km value for peptide phosphorylation by Bcr-Abl protein tyrosine kinase; assay type: protein assay
[13] = test system: CC[C@H](C)[C@H](NC(=O)[C@H](CCC(=O)O)NC(=O)[C@@H](N)CCC(=O)O)C(=O)N[C@@H](Cc1ccc(O)cc1)C(=O)N[C@@H](Cc1ccc(O)cc1)C(=O)N[C@@H](Cc1ccc(O)cc1)C(=O)N[C@H](C(=O)N[C@@H](Cc1c[nH]cn1)C(=O)O)C(C)C; experiment: as §2; assay type: protein assay
[14] = test system: CC[C@H](C)[C@H](NC(=O)[C@H](CCC(=O)O)NC(=O)[C@H](CC(=O)O)NC(=O)[C@H](Cc1ccc(O)cc1)NC(=O)[C@@H](NC(=O)[C@H](CCC(=O)O)NC(=O)[C@@H](N)CCC(=O)O)[C@@H](C)CC)C(=O)N[C@@H](Cc1ccc(O)cc1)C(=O)O; experiment: as §2; assay type: protein assay
[15] = test system: CC[C@H](C)[C@H](NC(=O)[C@H](CCC(=O)O)NC(=O)[C@@H](N)CCC(=O)O)C(=O)N[C@@H](Cc1ccc(O)cc1)C(=O)N[C@@H](CC(=O)O)C(=O)N[C@@H](Cc1ccc(O)cc1)C(=O)N[C@@H](C)C(=O)N[C@@H](Cc1ccc(O)cc1)C(=O)O; experiment: as §2; assay type: protein assay
[16] = test system: CC[C@H](C)[C@H](NC(=O)[C@H](CCC(=O)O)NC(=O)[C@@H](N)CCC(=O)O)C(=O)N[C@@H](Cc1ccc(O)cc1)C(=O)N[C@@H](C)C(=O)N[C@@H](CCC(=O)O)C(=O)N[C@@H](Cc1c[nH]c2ccccc12)C(=O)N[C@@H](Cc1ccccc1)C(=O)O; experiment: as §2; assay type: protein assay
[17] = test system: CC[C@H](C)[C@H](NC(=O)[C@H](CCCN=C(N)N)NC(=O)[C@@H](N)CCC(=O)O)C(=O)N[C@@H](Cc1ccc(O)cc1)C(=O)N[C@@H](C)C(=O)N[C@@H](CCCN=C(N)N)C(=O)N[C@H](C(=O)N[C@@H](CCCCN)C(=O)O)[C@@H](C)O; experiment: as §2; assay type: protein assay

Sequence of Bcr/Abl fusion protein (Homo sapiens) (from UniProt P00519+P11274) (P11274 whole entry, looked up, the tested form may be a part): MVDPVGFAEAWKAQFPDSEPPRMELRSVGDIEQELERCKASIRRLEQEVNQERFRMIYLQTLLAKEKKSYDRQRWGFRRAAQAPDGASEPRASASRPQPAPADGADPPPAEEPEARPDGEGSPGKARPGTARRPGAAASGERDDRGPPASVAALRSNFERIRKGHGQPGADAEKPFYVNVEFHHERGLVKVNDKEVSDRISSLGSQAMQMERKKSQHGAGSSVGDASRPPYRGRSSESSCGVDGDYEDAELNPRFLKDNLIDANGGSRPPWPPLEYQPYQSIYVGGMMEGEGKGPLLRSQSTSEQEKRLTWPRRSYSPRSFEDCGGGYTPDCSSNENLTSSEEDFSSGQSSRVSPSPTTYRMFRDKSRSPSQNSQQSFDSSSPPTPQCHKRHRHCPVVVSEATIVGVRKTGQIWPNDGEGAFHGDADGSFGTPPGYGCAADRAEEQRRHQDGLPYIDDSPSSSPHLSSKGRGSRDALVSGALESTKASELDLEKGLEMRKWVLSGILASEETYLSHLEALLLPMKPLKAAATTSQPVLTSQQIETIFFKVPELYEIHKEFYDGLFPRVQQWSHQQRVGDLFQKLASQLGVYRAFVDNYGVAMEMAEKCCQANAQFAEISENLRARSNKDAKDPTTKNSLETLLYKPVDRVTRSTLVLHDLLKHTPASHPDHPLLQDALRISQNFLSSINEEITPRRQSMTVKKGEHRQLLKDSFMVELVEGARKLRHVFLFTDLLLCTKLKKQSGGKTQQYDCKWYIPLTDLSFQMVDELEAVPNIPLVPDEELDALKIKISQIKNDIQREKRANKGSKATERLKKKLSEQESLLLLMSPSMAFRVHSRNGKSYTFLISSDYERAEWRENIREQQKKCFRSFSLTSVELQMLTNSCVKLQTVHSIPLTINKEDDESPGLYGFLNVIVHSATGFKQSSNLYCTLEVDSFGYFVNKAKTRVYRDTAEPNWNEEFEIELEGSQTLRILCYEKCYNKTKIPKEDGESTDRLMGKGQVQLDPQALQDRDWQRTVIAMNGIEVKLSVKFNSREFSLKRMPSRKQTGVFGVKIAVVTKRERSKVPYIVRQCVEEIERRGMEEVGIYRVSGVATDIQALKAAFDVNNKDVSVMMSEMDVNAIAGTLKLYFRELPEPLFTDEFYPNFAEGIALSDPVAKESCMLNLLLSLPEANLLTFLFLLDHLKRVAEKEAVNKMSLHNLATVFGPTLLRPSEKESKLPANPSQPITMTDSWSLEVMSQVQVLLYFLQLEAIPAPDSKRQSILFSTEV
Sequence of Bcr/Abl fusion protein (Homo sapiens) (from UniProt P00519+P11274) (P00519 whole entry, looked up, the tested form may be a part): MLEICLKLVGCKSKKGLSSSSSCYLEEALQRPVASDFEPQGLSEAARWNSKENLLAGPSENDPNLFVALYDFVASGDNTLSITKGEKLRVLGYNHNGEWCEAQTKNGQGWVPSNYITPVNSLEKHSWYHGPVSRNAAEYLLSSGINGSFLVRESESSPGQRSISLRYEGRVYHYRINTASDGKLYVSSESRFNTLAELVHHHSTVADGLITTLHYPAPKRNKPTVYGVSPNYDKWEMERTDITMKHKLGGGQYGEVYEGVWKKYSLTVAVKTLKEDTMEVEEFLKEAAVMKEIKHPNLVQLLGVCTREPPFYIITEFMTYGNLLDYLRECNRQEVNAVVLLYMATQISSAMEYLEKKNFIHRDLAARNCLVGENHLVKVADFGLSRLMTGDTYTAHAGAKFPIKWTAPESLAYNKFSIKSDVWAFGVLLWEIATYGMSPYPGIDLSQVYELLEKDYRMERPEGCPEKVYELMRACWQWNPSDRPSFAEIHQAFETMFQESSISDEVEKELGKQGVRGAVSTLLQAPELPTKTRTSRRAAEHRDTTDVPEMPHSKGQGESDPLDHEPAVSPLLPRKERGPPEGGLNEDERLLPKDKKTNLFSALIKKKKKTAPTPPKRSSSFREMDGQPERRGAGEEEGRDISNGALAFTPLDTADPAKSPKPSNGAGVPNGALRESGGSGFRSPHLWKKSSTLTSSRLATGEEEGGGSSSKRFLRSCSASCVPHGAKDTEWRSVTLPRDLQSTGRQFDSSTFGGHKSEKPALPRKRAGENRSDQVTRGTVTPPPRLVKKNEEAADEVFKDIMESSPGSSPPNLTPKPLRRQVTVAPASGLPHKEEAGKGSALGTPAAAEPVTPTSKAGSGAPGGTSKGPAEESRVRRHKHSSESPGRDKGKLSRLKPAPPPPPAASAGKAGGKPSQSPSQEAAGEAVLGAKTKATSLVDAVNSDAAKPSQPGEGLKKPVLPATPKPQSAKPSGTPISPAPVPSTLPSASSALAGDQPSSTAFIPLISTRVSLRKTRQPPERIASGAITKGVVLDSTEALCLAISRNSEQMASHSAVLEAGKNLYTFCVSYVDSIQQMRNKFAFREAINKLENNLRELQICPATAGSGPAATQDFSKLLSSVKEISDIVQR
Sequence of Tyrosine-protein kinase ABL1 (Homo sapiens) (P00519 whole entry, the tested form may be a part): as the sequence (P00519 whole entry, looked up, the tested form may be a part) above
T1 sequence (P00519 whole entry, looked up, the tested form may be a part): as above
T1 sequence (P11274 whole entry, looked up, the tested form may be a part): as the sequence (P11274 whole entry, looked up, the tested form may be a part) above

Molecule | Ratio [1] | Activity [2] | Activity [3] | Vmax / Km (10^-9 L min-1) [4] | Vmax / Km (10^-9 L min-1) [5] | other results
CC[C@H](C)[C@H](NC(=O)[C@H](CCC(=O)O)NC(=O)[C@@H](N)CCC(=O)O)C(=O)N[C@@H](Cc1ccc(O)cc1)C(=O)N[C@@H](C)C(=O)N[C@@H](CCC(=O)O)C(=O)N[C@@H](Cc1c[nH]c2ccccc12)C(=O)N[C@@H](Cc1ccccc1)C(=O)O (H-EEIYAEWF-OH) | 3.98 | 22.6 pM | 5.69 pmol | 14 | 97.6 | –
CC[C@H](C)[C@H](NC(=O)[C@H](CCC(=O)O)NC(=O)[C@@H](N)CCC(=O)O)C(=O)N[C@@H](Cc1ccc(O)cc1)C(=O)N[C@@H](CCC(=O)O)C(=O)N[C@@H](CCC(=O)O)C(=O)N1CCC[C@H]1C(=O)N[C@@H](Cc1ccc(O)cc1)C(=O)O (H-EEIYEEPY-OH) | 3.38 | 25.5 pM | 7.56 pmol | 12.1 | 98.8 | –
CC[C@H](C)[C@H](NC(=O)[C@H](Cc1c[nH]cn1)NC(=O)[C@@H](N)CCC(=O)O)C(=O)N[C@@H](Cc1ccc(O)cc1)C(=O)N[C@@H](Cc1c[nH]cn1)C(=O)N[C@@H](CCCN=C(N)N)C(=O)N[C@@H](Cc1c[nH]cn1)C(=O)N[C@@H](CCSC)C(=O)O (H-EHIYHRHM-OH) | 8.27 | 2.73 pM | 0.33 pmol | – | – | –
CC[C@H](C)[C@H](NC(=O)[C@H](CCCN=C(N)N)NC(=O)[C@@H](N)CCC(=O)O)C(=O)N[C@@H](Cc1ccc(O)cc1)C(=O)N[C@@H](C)C(=O)N[C@@H](CCCN=C(N)N)C(=O)N[C@H](C(=O)N[C@@H](CCCCN)C(=O)O)[C@@H](C)O (H-ERIYARTK-OH) | 6.79 | 22.9 pM | 3.37 pmol | 2.47 | 42.2 | –
CC[C@H](C)[C@H](NC(=O)[C@H](CCCN=C(N)N)NC(=O)[C@@H](N)CC(C)C)C(=O)N[C@@H](Cc1ccc(O)cc1)C(=O)N[C@@H](CCC(=O)O)C(=O)N[C@@H](CCCN=C(N)N)C(=O)N1CCC[C@H]1C(=O)N[C@@H](CCCN=C(N)N)C(=O)O (H-LRIYERPR-OH) | 8.73 | 10.7 pM | 1.23 pmol | – | – | –
CC[C@H](C)[C@H](NC(=O)[C@H](CCCN=C(N)N)NC(=O)[C@@H]1CCCN1)C(=O)N[C@@H](Cc1ccc(O)cc1)C(=O)N[C@@H](CC(=O)O)C(=O)N[C@H](C(=O)N1CCC[C@H]1C(=O)N[C@@H](Cc1ccc(O)cc1)C(=O)O)[C@@H](C)CC (H-PRIYDIPY-OH) | 5.97 | 9.5 pM | 1.59 pmol | – | – | –
Bcr/Abl fusion protein (Homo sapiens) (from UniProt P00519+P11274) | – | – | – | – | – | Vmax [6]: 10.5 pmol/min; Vmax [7]: 4.64 pmol/min; Vmax [8]: 7.5 pmol/min; Vmax [9]: 7.33 pmol/min; Vmax [10]: 5.27 pmol/min; Vmax [11]: 5.1 pmol/min; Km [12]: 106 µM; Km [13]: 141 µM; Km [14]: 439 µM; Km [15]: 130 µM; Km [16]: 54 µM; Km [17]: 121 µM

Further lines, with some results ahead:

Ratio [1] | Activity [2] | Activity [3] | Vmax / Km (10^-9 L min-1) [4] | Vmax / Km (10^-9 L min-1) [5] | Molecule | other results
4.92 | 4.35 pM | 0.88 pmol | – | – | CC[C@H](C)[C@H](NC(=O)[C@H](CCC(=O)O)NC(=O)[C@H](Cc1ccc(O)cc1)NC(=O)[C@@H](NC(=O)[C@H](CC(=O)O)NC(=O)[C@@H](N)CC(=O)O)[C@@H](C)CC)C(=O)N[C@@H](Cc1ccc(O)cc1)C(=O)N[C@@H](Cc1c[nH]c2ccccc12)C(=O)O (H-DDIYEIYW-OH) | –
3.44 | 14.4 pM | 4.18 pmol | 3.75 | 17.1 | CC[C@H](C)[C@H](NC(=O)[C@H](CCC(=O)O)NC(=O)[C@H](CC(=O)O)NC(=O)[C@H](Cc1ccc(O)cc1)NC(=O)[C@@H](NC(=O)[C@H](CCC(=O)O)NC(=O)[C@@H](N)CCC(=O)O)[C@@H](C)CC)C(=O)N[C@@H](Cc1ccc(O)cc1)C(=O)O (H-EEIYDEIY-OH) | –
3.33 | 22.4 pM | 6.73 pmol | 7.46 | 56.4 | CC[C@H](C)[C@H](NC(=O)[C@H](CCC(=O)O)NC(=O)[C@@H](N)CCC(=O)O)C(=O)N[C@@H](Cc1ccc(O)cc1)C(=O)N[C@@H](CC(=O)O)C(=O)N[C@@H](Cc1ccc(O)cc1)C(=O)N[C@@H](C)C(=O)N[C@@H](Cc1ccc(O)cc1)C(=O)O (H-EEIYDYAY-OH) | –
3.52 | 4.48 pM | 1.27 pmol | – | – | CC[C@H](C)[C@H](NC(=O)[C@H](CCC(=O)O)NC(=O)[C@@H](N)CCC(=O)O)C(=O)N[C@@H](Cc1ccc(O)cc1)C(=O)N[C@@H](Cc1ccc(O)cc1)C(=O)N[C@@H](Cc1ccc(O)cc1)C(=O)N[C@@H](CCC(=O)O)C(=O)N[C@@H](CC(C)C)C(=O)O (H-EEIYYYEL-OH) | –
5.24 | 17.7 pM | 3.37 pmol | 2.38 | 32.9 | CC[C@H](C)[C@H](NC(=O)[C@H](CCC(=O)O)NC(=O)[C@@H](N)CCC(=O)O)C(=O)N[C@@H](Cc1ccc(O)cc1)C(=O)N[C@@H](Cc1ccc(O)cc1)C(=O)N[C@@H](Cc1ccc(O)cc1)C(=O)N[C@H](C(=O)N[C@@H](Cc1c[nH]cn1)C(=O)O)C(C)C (H-EEIYYYVH-OH) | –
2.29 | 4.33 pM | 1.89 pmol | – | – | CC[C@H](C)[C@H](NC(=O)[C@H](Cc1ccc(O)cc1)NC(=O)[C@H](CC(=O)O)NC(=O)[C@H](Cc1ccc(O)cc1)NC(=O)[C@@H](NC(=O)[C@H](CCC(=O)O)NC(=O)[C@@H](N)Cc1ccc(O)cc1)[C@@H](C)CC)C(=O)N[C@@H](CCC(=O)O)C(=O)O (H-YEIYDYIE-OH) | –
2.91 | 7.89 pM | 2.71 pmol | – | – | CC[C@H](C)[C@H](NC(=O)[C@H](CCC(=O)O)NC(=O)[C@@H](N)Cc1ccc(O)cc1)C(=O)N[C@@H](Cc1ccc(O)cc1)C(=O)N[C@@H](CC(=O)O)C(=O)N[C@@H](Cc1ccc(O)cc1)C(=O)N[C@@H](Cc1ccc(O)cc1)C(=O)N[C@H](C(=O)O)C(C)C (H-YEIYDYYV-OH) | –
